Measurements taken from publication PMC6834573, “Novel insights into transketolase activation by cofactor binding identifies two native species subpopulations” (Scientific Reports, 2019).

B1: Wild-type E. coli transketolase (apo-transketolase) (enzyme)
chain: SSRKELANAIRALSMDAVQKAKSGHPGAPMGMADIAEVLWRDFLKHNPQNPSWADRDRFVLSNGHGSMLIYSLLHLTGYDLPMEELKNFRQLHSKTPGHPEVGYTAGVETTTGPLGQGIANAVGMAIAEKTLAAQFNRPGHDIVDHYTYAFMGDGCMMEGISHEVCSLAGTLKLGKLIAFYDDNGISIDGHVEGWFTDDTAMRFEAYGWHVIRDIDGHDAASIKRAVEEARAVTDKPSLLMCKTIIGFGSPNKAGTHDSHGAPLGDAEIALTREQLGWKYAPFEIPSEIYAQWDAKEAGQAKESAWNEKFAAYAKAYPQEAAEFTRRMKGEMPSDFDAKAKEFIAKLQANPAKIASRKASQNAIEAFGPLLPEFLGGSADLAPSNLTLWSGSKAINEDAAGNYIHYGVREFGMTAIANGISLHGGFLPYTSTFLMFVEYARNAVRMAALMKQRQVMVYTHDSIGLGEDGPTHQPVEQVASLRVTPNMSTWRPCDQVESAVAWKYGVERQDGPTALILSRQNLAQQERTEEQLANIARGGYVLKDCAGQPELIFIATGSEVELAVAAYEKLTAEGVKARVVSMPSTDAFDKQDAAYRESVLPKAVTARVAVEAGIADYWYKYVGLNGAIVGMTTFGESAPAELLFEEFGFTVDNVVAKAKELL
notes: Transketolase (EC 2.2.1.1) of E. coli, wild type; monomeric molecular weight 73035.5 g/mol as printed; The preparation is a mixture; By mass spectrometry about 31% carries one or two extra oxygen atoms (TKhigh, most likely Cys157 sulfenic or sulfinic acid) and the rest is unmodified (TKlow); also called TK; apoTK; source: E. coli XL10-gold, from the plasmid pQR791, purified, ultrafiltrated and …

Experiments:
[1] = target: T1, wild-type E. coli transketolase (TK; TKhigh / TKlow subpopulations) (Escherichia coli, UniProt P27302); assay: intrinsic fluorescence quenching (ex […] nm, em […] nm), double-Hill fit; type: binding; settings: second site, 9 mM Mg2+, 50 mM Tris-HCl pH 7.0, 22 °C, 0.05 mg/mL TK, low-affinity subpopulation TKlow (chemically unmodified enzyme)
T1 construct: gene tktA; full length, N-terminal His6-tag kept, from plasmid pQR791 in E. coli XL10-gold; apo form after dialysis; homodimer; about one third oxidised (TKhigh), rest unmodified (TKlow)

[2] = target: T1, wild-type E. coli transketolase (TK; TKhigh / TKlow subpopulations); assay: as above; type: binding; settings: read-out: Kd(high)
[3] = target: the molecule itself; assay: AUC; sedimentation velocity, apoTK at 0.2 mg/mL without Mg2+ and TPP, 20 °C, pH 7.0, 40,000 rpm, c(s) analysis with SEDFIT; dimer to monomers

T1 sequence (P27302 whole entry): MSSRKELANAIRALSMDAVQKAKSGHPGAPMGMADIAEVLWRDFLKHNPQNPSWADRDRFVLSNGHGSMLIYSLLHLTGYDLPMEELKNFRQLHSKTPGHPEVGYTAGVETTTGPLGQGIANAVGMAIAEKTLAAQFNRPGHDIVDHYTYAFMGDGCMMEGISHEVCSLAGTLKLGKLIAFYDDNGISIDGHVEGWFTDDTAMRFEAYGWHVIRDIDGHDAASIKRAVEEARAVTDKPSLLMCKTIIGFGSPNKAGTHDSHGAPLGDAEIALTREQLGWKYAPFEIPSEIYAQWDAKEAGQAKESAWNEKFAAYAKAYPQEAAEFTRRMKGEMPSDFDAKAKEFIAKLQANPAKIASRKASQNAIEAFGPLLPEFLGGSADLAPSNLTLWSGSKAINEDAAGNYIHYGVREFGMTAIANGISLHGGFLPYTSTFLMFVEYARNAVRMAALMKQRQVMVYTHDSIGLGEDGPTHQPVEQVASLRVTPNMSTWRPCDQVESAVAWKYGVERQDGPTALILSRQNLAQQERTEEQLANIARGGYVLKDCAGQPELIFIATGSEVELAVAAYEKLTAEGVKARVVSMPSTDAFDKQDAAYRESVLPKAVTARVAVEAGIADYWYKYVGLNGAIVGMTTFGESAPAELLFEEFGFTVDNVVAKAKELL

Molecule | Kd(low) [1] | Kd [2] | stoichiometry N [3]
Cc1ncc(C[n+]2csc(CCOP(=O)(O)OP(=O)(O)O)c2C)c(N)n1 [TPP, thiamine pyrophosphate] | 276000 ± 25000 nM | 2290 ± 230 nM | –
B1 | – | – | 2
